# Literature values as cited in patent publication US20260315605A1, “PROTACS FOR ASK1 PROTEIN DEGRADATION: PREPARATION AND USE THEREOF” (COUNCIL OF SCIENTIFIC AND INDUSTRIAL RESEARCH, priority 2023, published 2026).
# Assays:
# ASK1/MAPK pathway = conditions: Harrison et al. 2020
# NASH patients = conditions: Phase III, Harrison et al. 2020
compound,measurement,setting,value
Cc1cc(F)c(C(=O)Nc2cccc(-c3nncn3C(C)C)n2)cc1-n1cnc(C2CC2)c1 [selonsertib],anti-fibrotic activity,ASK1/MAPK pathway,promising anti-fibrotic activity
same,"clinical outcome, fibrosis improvement",NASH patients,failed in Phase III clinical trial of fibrosis improvement in NASH patients
